The values that follow come from patent US20060063784A1, “Method of using substituted pyrazolo [1,5-a] pyrimidines” (priority 2004, published 2006).

The assay deals with 80S14 (p21-deficient) cells. The assay can be described thus: Cytotoxicity assay using isogenic cell lines: IC50 in 80S14 (p21-deficient) cells, SRB. It is filed as cell-based, human. As to conditions: Homo sapiens, 120 h; 80S14 p21-deficient cells, 5 days incubation, SRB; read-out: IC50 for 80SI4. The gist of the method:
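80S14 (p21-deficient) cells seeded at 12,000 cells/well overnight, then exposed 5 days at 37 °C to serial dilutions (5 pM–50 μM or 170 pg/ml–10 μg/ml). TCA-fixed, sulforhodamine B-stained, absorbance at 560 nm; IC50 taken from cytotoxicity curves versus untreated controls.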
As to `CCCCCCCOc1ccc(C(=O)Nc2cccc(-c3ccnc4c(C(=O)c5cccs5)cnn34)c2)cc1` [Example 91, 4-(heptyloxy)-N-{3-[3-(thien-2-ylcarbonyl)pyrazolo[1,5-a]pyrimidin-7-yl]phenyl}benzamide], the IC50 fell in the range of 10 to 50 µM.

Turning to `CCCCCc1ccc(C(=O)Nc2cccc(-c3ccnc4c(C(=O)c5cccs5)cnn34)c2)cc1` [Example 92, 4-pentyl-N-{3-[3-(thien-2-ylcarbonyl)pyrazolo[1,5-a]pyrimidin-7-yl]phenyl}benzamide], the half-maximal inhibitory concentration (IC50) lay within 10 to 50 µM. Under `COc1cccc(C(=O)Nc2cccc(-c3ccnc4c(C(=O)c5cccs5)cnn34)c2)c1` [Example 97, 3-methoxy-N-{3-[3-(thien-2-ylcarbonyl)pyrazolo[1,5-a]pyrimidin-7-yl]phenyl}benzamide] stands below 1 µM.

Take `O=C(Nc1cccc(-c2ccnc3c(C(=O)c4cccs4)cnn23)c1)c1cccc(F)c1` [Example 98, 3-fluoro-N-{3-[3-(thien-2-ylcarbonyl)pyrazolo[1,5-a]pyrimidin-7-yl]phenyl}benzamide]: the half-inhibitory concentration (IC50) was below 1 µM. Consider `COc1ccc(C(=O)Nc2cccc(-c3ccnc4c(C(=O)c5cccs5)cnn34)c2)cc1OC` [Example 99, 3,4-dimethoxy-N-{3-[3-(thien-2-ylcarbonyl)pyrazolo[1,5-a]pyrimidin-7-yl]phenyl}benzamide], for which the IC50 lay in the range of 1 to 10 µM. On to `O=C(Nc1cccc(-c2ccnc3c(C(=O)c4cccs4)cnn23)c1)c1ccc(Cl)c(Cl)c1` [Example 100, 3,4-dichloro-N-{3-[3-(thien-2-ylcarbonyl)pyrazolo[1,5-a]pyrimidin-7-yl]phenyl}benzamide], for which the half-inhibitory concentration (IC50) lay within 10 to 50 µM.

Consider `COc1cccc(OC)c1C(=O)Nc1cccc(-c2ccnc3c(C(=O)c4cccs4)cnn23)c1` [Example 101, 2,6-dimethoxy-N-{3-[3-(thien-2-ylcarbonyl)pyrazolo[1,5-a]pyrimidin-7-yl]phenyl}benzamide], for which the half-maximal inhibitory concentration (IC50) is below 1 µM.

Take `O=C(Nc1cccc(-c2ccnc3c(C(=O)c4cccs4)cnn23)c1)c1ccc(F)c(F)c1` [Example 102, 3,4-difluoro-N-{3-[3-(thien-2-ylcarbonyl)pyrazolo[1,5-a]pyrimidin-7-yl]phenyl}benzamide]: the concentration for half-maximal inhibition (IC50) fell in the range of 1 to 10 µM. For the compound `O=C(Nc1cccc(-c2ccnc3c(C(=O)c4cccs4)cnn23)c1)c1cccc2ccccc12` [Example 103, N-{3-[3-(thien-2-ylcarbonyl)pyrazolo[1,5-a]pyrimidin-7-yl]phenyl}-1-naphthamide], the half-maximal inhibitory concentration (IC50) is below 1 µM. As for `O=C(Nc1cccc(-c2ccnc3c(C(=O)c4cccs4)cnn23)c1)c1ccc2ccccc2c1` [Example 104, N-{3-[3-(thien-2-ylcarbonyl)pyrazolo[1,5-a]pyrimidin-7-yl]phenyl}-2-naphthamide], the IC50 lay in the range of 10 to 50 µM. In the case of `O=C(Cc1ccccc1)Nc1cccc(-c2ccnc3c(C(=O)c4cccs4)cnn23)c1` [Example 105, 2-phenyl-N-{3-[3-(thien-2-ylcarbonyl)pyrazolo[1,5-a]pyrimidin-7-yl]phenyl}acetamide], the IC50 was below 1 µM. In the case of `COc1ccc(CC(=O)Nc2cccc(-c3ccnc4c(C(=O)c5cccs5)cnn34)c2)cc1` [Example 106, 2-(4-methoxyphenyl)-N-{3-[3-(thien-2-ylcarbonyl)pyrazolo[1,5-a]pyrimidin-7-yl]phenyl}acetamide], the half-maximal inhibitory concentration (IC50) is below 1 µM. Consider `COc1cccc(CC(=O)Nc2cccc(-c3ccnc4c(C(=O)c5cccs5)cnn34)c2)c1` [Example 107, 2-(3-methoxyphenyl)-N-{3-[3-(thien-2-ylcarbonyl)pyrazolo[1,5-a]pyrimidin-7-yl]phenyl}acetamide], for which the IC50 was below 1 µM.

Turning to `O=C(Cc1ccc(Cl)cc1)Nc1cccc(-c2ccnc3c(C(=O)c4cccs4)cnn23)c1` [Example 108, 2-(4-chlorophenyl)-N-{3-[3-(thien-2-ylcarbonyl)pyrazolo[1,5-a]pyrimidin-7-yl]phenyl}acetamide], the IC50 is below 1 µM. In the case of `O=C(Cc1ccc(F)cc1)Nc1cccc(-c2ccnc3c(C(=O)c4cccs4)cnn23)c1` [Example 109, 2-(4-fluorophenyl)-N-{3-[3-(thien-2-ylcarbonyl)pyrazolo[1,5-a]pyrimidin-7-yl]phenyl}acetamide] it was below 1 µM; in that of `COc1ccc(OC)c(CC(=O)Nc2cccc(-c3ccnc4c(C(=O)c5cccs5)cnn34)c2)c1` [Example 110, 2-(2,5-dimethoxyphenyl)-N-{3-[3-(thien-2-ylcarbonyl)pyrazolo[1,5-a]pyrimidin-7-yl]phenyl}acetamide], 1 to 10 µM; in that of `O=C(COc1ccccc1)Nc1cccc(-c2ccnc3c(C(=O)c4cccs4)cnn23)c1` [Example 111, 2-phenoxy-N-{3-[3-(thien-2-ylcarbonyl)pyrazolo[1,5-a]pyrimidin-7-yl]phenyl}acetamide], 1 to 10 µM. Consider `O=C(Nc1cccc(-c2ccnc3c(C(=O)c4cccs4)cnn23)c1)c1ccc(F)cc1` [Example 112, 4-fluoro-N-{3-[3-(thien-2-ylcarbonyl)pyrazolo[1,5-a]pyrimidin-7-yl]phenyl}benzamide], for which the IC50 is below 1 µM. `CCOC(=O)NCC(=O)Nc1cccc(-c2ccnc3c(C(=O)c4cccs4)cnn23)c1` [Example 113, ethyl 2-oxo-2-({3-[3-(thien-2-ylcarbonyl)pyrazolo[1,5-a]pyrimidin-7-yl]phenyl}amino)ethylcarbamate]: the half-maximal inhibitory concentration (IC50) lay within 1 to 10 µM. Under `CCCOC(=O)NCC(=O)Nc1cccc(-c2ccnc3c(C(=O)c4cccs4)cnn23)c1` [Example 114, propyl 2-oxo-2-({3-[3-(thien-2-ylcarbonyl)pyrazolo[1,5-a]pyrimidin-7-yl]phenyl}amino)ethylcarbamate] stands 10 to 50 µM; under `CC(C)OC(=O)NCC(=O)Nc1cccc(-c2ccnc3c(C(=O)c4cccs4)cnn23)c1` [Example 115, isopropyl 2-oxo-2-({3-[3-(thien-2-ylcarbonyl)pyrazolo[1,5-a]pyrimidin-7-yl]phenyl}amino)ethylcarbamate], 1 to 10 µM; under `CCCCOC(=O)NCC(=O)Nc1cccc(-c2ccnc3c(C(=O)c4cccs4)cnn23)c1` [Example 116, butyl 2-oxo-2-({3-[3-(thien-2-ylcarbonyl)pyrazolo[1,5-a]pyrimidin-7-yl]phenyl}amino)ethylcarbamate], below 1 µM. In the case of `CC(C)COC(=O)NCC(=O)Nc1cccc(-c2ccnc3c(C(=O)c4cccs4)cnn23)c1` [Example 117, isobutyl 2-oxo-2-({3-[3-(thien-2-ylcarbonyl)pyrazolo[1,5-a]pyrimidin-7-yl]phenyl}amino)ethylcarbamate], the half-inhibitory concentration (IC50) was 1 to 10 µM. Consider `C=CCCOC(=O)NCC(=O)Nc1cccc(-c2ccnc3c(C(=O)c4cccs4)cnn23)c1` [Example 118, but-3-enyl-2-oxo-2-({3-[3-(thien-2-ylcarbonyl)pyrazolo[1,5-a]pyrimidin-7-yl]phenyl}amino)ethylcarbamate], for which the concentration for half-maximal inhibition (IC50) lay in the range of 1 to 10 µM. `O=C(CNC(=O)OCCCCCl)Nc1cccc(-c2ccnc3c(C(=O)c4cccs4)cnn23)c1` [Example 119, 4-chlorobutyl 2-oxo-2-({3-[3-(thien-2-ylcarbonyl)pyrazolo[1,5-a]pyrimidin-7-yl]phenyl}amino)ethylcarbamate]: the IC50 was in the range of 10 to 50 µM. Take `O=C(CNC(=O)OCCCl)Nc1cccc(-c2ccnc3c(C(=O)c4cccs4)cnn23)c1` [Example 120, 2-chloroethyl-2-oxo-2-({3-[3-(thien-2-ylcarbonyl)pyrazolo[1,5-a]pyrimidin-7-yl]phenyl}amino)ethylcarbamate]: the concentration for half-maximal inhibition (IC50) fell in the range of 1 to 10 µM.

The IC50 is the midpoint of a concentration-inhibition curve.
